According to patent US20250360183A1, “USE OF GMI FROM GANODERMA LUCIDUM SPORES IN THE PREPARATION OF PHARMACEUTICALS AND FOOD PRODUCTS” (Titan Biological & Agricultural Technology Co., Limited, priority 2024, published 2025):

Assays:
[1] = system: fibronectin, COL1A1, and α-SMA; test: Western blot of fibrosis markers in TGF-β1-induced fibrotic LL29 cells; type: cell-based, human; settings: LL29 cells stimulated with TGF-β1 5 ng/ml, normalized to α-tubulin
Method: In the in vitro experiments, cells were pre-treated with test compounds and subsequently stimulated with recombinant TGF-β1 to induce fibrotic processes. TGF-β1 plays a critical role in epithelial-mesenchymal transition (EMT), a key driver in the differentiation of fibroblasts into myofibroblasts. LL29 cells, derived from IPF patient lung fibroblasts, were obtained from ATCC®. Upon reaching 70% confluence, cells were pre-treated with selected concentrations of GMI in low-serum media for 2 hours, followed by exposure to 5 ng/ml of recombinant human TGF-β1 (R&D Systems, MN, USA) for 48 hours.
Cell lysates were prepared in RIPA buffer. […] Protein expression was quantified using Fiji software.
The present invention evaluated the expression levels of fibronectin, COL1A1, and alpha-smooth muscle actin (α-SMA), as these proteins are key markers associated with myofibroblasts and extracellular matrix (ECM) remodeling.
FIG. 3 (A) presents the results of Western blot analysis showing the expression of fibronectin, COL1A1, α-SMA, and the internal loading control α-tubulin. FIGS. 3 (B), (C) and (D) show the quantification of protein expression based on band intensity, represented as fold changes in the ratios of fibronectin/α-tubulin, COL1A1/α-tubulin, and α-SMA/α-tubulin, normalized to the untreated control (NT) group. […]

[2] = system: BLM-induced pulmonary fibrosis; test: BLM-induced pulmonary fibrosis mouse model; type: in vivo, C57BL/6J mice; settings: BLM 2.5 U/kg mice
Method: Four groups were intratracheally administered bleomycin (BLM; 2.5 U/kg) to induce pulmonary fibrosis, while one group served as a normal control. The treatment groups included: BLM-only, BLM+GMI (1 mg/kg), BLM+GMI (2 mg/kg), and BLM+PFD (200 mg/kg). All surviving animals were sacrificed on day 22.

For Cc1ccc(=O)n(-c2ccccc2)c1 [PFD, pirfenidone], the “expression levels of fibronectin, COL1A1 and α-SMA” value [1] was “failed to suppress the TGF-β1-induced upregulation”, the survival rate ([2]; PFD 200 mg/kg) was 50% and the “lung appearance (gross examination, color)” value ([2]; compared to normal group) was “color and appearance comparable to the normal group”.
